In the experiment the target is T1, human TLR7 (Homo sapiens, UniProt Q9NYK1).
T1 construct: expressed in transfected cells; host or cells: HEK293 cell line stably expressing the pNiFty2-SEAP reporter plasmid; TLR7 in pUNO vector, blasticidin selection
T1 sequence (Q9NYK1 27-1049): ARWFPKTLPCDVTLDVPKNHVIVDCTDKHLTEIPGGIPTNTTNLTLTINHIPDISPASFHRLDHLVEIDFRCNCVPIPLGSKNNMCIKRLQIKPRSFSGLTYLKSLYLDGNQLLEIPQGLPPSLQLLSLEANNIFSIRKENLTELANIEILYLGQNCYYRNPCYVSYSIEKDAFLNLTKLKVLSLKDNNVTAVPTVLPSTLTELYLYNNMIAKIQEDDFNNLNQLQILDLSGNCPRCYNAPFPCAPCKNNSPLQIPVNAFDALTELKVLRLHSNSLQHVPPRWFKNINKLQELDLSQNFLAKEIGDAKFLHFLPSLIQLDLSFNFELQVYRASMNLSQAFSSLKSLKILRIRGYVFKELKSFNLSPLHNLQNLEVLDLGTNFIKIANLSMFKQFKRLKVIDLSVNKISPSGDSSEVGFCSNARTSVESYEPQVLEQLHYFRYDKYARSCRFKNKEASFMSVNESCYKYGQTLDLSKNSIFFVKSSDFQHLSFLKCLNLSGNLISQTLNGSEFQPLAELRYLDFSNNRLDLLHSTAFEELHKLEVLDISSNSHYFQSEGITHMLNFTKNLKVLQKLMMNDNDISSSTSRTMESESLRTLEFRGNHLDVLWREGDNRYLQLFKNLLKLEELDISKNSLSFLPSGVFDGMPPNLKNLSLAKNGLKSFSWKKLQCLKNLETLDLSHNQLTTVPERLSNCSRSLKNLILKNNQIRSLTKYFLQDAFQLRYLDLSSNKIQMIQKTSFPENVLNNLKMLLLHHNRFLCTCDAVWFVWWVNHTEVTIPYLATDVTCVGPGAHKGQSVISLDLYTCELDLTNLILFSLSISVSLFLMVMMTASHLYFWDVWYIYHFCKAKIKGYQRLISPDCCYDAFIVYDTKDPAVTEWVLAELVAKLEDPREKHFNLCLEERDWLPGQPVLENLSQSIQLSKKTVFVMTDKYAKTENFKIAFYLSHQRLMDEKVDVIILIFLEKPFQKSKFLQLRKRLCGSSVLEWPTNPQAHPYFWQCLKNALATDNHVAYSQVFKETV
Nature of the experiment: Human TLR7 Assay (SEAP reporter in HEK293 cells).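 Also: Read-out is secreted alkaline phosphatase made under an NFkB/ELAM-1 composite promoter, reporting TLR7-triggered NFkB activation.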 It is filed as cell-based. The conditions noted are these: HEK293 cell line expressing human TLR7 and pNiFty2-SEAP reporter, overnight incubation at 37° C., 0.1% DMSO; read-out: hTLR7 EC50.

One may read the EC50 as the midpoint of the concentration-response curve.

Take `CCOC(=O)COc1ccc(CN(CCN2CCCCC2)C(=O)NCCCCn2c(CCOC)nc3c(N)nc4ccccc4c32)cc1` [Example 131, Ethyl 2-{4-[(3-{4-[4-amino-2-(2-methoxyethyl)-1H-imidazo[4,5-c]quinolin-1-yl]butyl}-1-{2-(piperidin-1-yl)ethyl}ureido)methyl]phenoxy}acetate]: the EC50 was 37.5 nM.

`CCOC(=O)C1(Oc2cccc(CN(CCCn3c(CCOC)nc4c(N)nc5ccccc5c43)C(=O)CN(CC)CC)c2)CCC1` [Example 59, Ethyl 1-{3-[(N-{3-[4-amino-2-(2-methoxyethyl)-1H-imidazo[4,5-c]quinolin-1-yl]propyl}-2-{diethylamino}acetamido)methyl]phenoxy}cyclobutanecarboxylate]: the EC50 was determined as 69 nM.

`CCCCc1nc2c(N)nc3ccccc3c2n1CCCN(Cc1cccc(OC(C)(C)C(=O)OC)c1)C(=O)CN(C)C` [Example 156, Methyl 2-[3-({N-[3-(4-amino-2-butyl-1H-imidazo[4,5-c]quinolin-1-yl)propyl]-2-(dimethylamino)acetamido}methyl)phenoxy]-2-methylpropanoate]: the half-maximal effective concentration (EC50) worked out at 168 nM.

Turning to `COCCc1nc2c(N)nc3ccccc3c2n1CCCN(Cc1cccc(OCC(=O)OC(C)C)c1F)C(=O)CN(C)C` [Example 96, Isopropyl 2-{3-[(N-{3-[4-amino-2-(2-methoxyethyl)-1H-imidazo[4,5-c]quinolin-1-yl]propyl}-2-{dimethylamino}acetamido)methyl]-2-fluorophenoxy}acetate], the EC50 was 304 nM.

As to `CCOC(=O)COc1cccc(CN(CCCCn2c(CCOC)nc3c(N)nc4ccccc4c32)C(=O)NCCCN2CCCCC2)c1` [Example 128, Ethyl 2-{3-[(1-{4-[4-amino-2-(2-methoxyethyl)-1H-imidazo[4,5-c]quinolin-1-yl]butyl}-3-{3-(piperidin-1-yl)propyl}ureido)methyl]phenoxy}acetate], the EC50 stood at 130 nM.

As to `CCCCc1nc2c(N)nc3ccccc3c2n1CCCN(Cc1ccc(OCC(=O)OC)cc1)C(=O)CN1CCCCC1` [Example 6, Methyl (4-{[[3-(4-amino-2-butyl-1H-imidazo[4,5-c]quinolin-1-yl)propyl](piperidin-1-ylacetyl)amino]methyl}phenoxy)acetate], the EC50 was found to be 169 nM.

As to `CCCCc1nc2c(N)nc3ccccc3c2n1CCCN(Cc1ccc(OCC(=O)OC)cc1)C(=O)CN(C)C` [Example 5, Methyl (4-{[[3-(4-amino-2-butyl-1H-imidazo[4,5-c]quinolin-1-yl)propyl](N,N-dimethylglycyl)amino]methyl}phenoxy)acetate], the EC50 came to 247 nM.

Turning to `COCCc1nc2c(N)nc3ccccc3c2n1CCCN(Cc1ccc(OC)c(OCC(=O)OC(C)C)c1)C(=O)CN(C)C` [Example 75, Isopropyl 2-{5-[(N-{3-[4-amino-2-(2-methoxyethyl)-1H-imidazo[4,5-c]quinolin-1-yl]propyl}-2-{dimethylamino}acetamido)methyl]-2-methoxyphenoxy}acetate], the EC50 worked out at 405 nM.

With `CCOC(=O)COc1cccc(CN(CCCCn2c(CCOC)nc3c(N)nc4ccccc4c32)C(=O)NCCN2CCCCC2)c1` [Example 126, Ethyl 2-{3-[(1-{4-[4-amino-2-(2-methoxyethyl)-1H-imidazo[4,5-c]quinolin-1-yl]butyl}-3-{2-(piperidin-1-yl)ethyl}ureido)methyl]phenoxy}acetate], the EC50 came out at 47 nM.

Consider `CCOC(=O)COc1cccc(CN(CCCn2c(CCOC)nc3c(N)nc4ccccc4c32)C(=O)CN(CC)CC)c1` [Example 25, Ethyl 2-{3-[(N-{3-[4-amino-2-(2-methoxyethyl)-1H-imidazo[4,5-c]quinolin-1-yl]propyl}-2-(diethylamino)acetamido)methyl]phenoxy}acetate], for which the EC50 is 58.7 nM.

As to `CCOC(=O)COc1cccc(CN(CCCCn2c(CCOC)nc3c(N)nc4ccccc4c32)C(=O)CN(CC)CC)c1` [Example 44, Ethyl 2-{3-[(N-{4-[4-amino-2-(2-methoxyethyl)-1H-imidazo[4,5-c]quinolin-1-yl]butyl}-2-(diethylamino)acetamido)methyl]phenoxy}acetate], the EC50 came to 22.7 nM.

Turning to `COCCc1nc2c(N)nc3ccccc3c2n1CCCCN(CCN(C)C)Cc1cccc(OCC(=O)OC(C)C)c1` [Example 132, Isopropyl 2-{3-[({4-[4-amino-2-(2-methoxyethyl)-1H-imidazo[4,5-c]quinolin-1-yl]butyl}{2-[dimethylamino]ethyl}amino)methyl]phenoxy}acetate], the EC50 is 56.4 nM.

In the case of `CCN(C)CC(=O)N(CCCn1c(CCOC)nc2c(N)nc3ccccc3c21)Cc1ccc(OC)c(OCC(=O)OC(C)C)c1` [Example 76, Isopropyl 2-{5-[(N-{3-[4-amino-2-(2-methoxyethyl)-1H-imidazo[4,5-c]quinolin-1-yl]propyl}-2-{ethyl(methyl)amino}acetamido)methyl]-2-methoxyphenoxy}acetate], the EC50 was determined as 211 nM.

In the case of `COCCc1nc2c(N)nc3ccccc3c2n1CCCN(Cc1cccc(OCC(=O)OC(C)C)c1)C(=O)CN(C)C` [Example 113, Isopropyl 2-{3-[(N-{3-[4-amino-2-(2-methoxyethyl)-1H-imidazo[4,5-c]quinolin-1-yl]propyl}-2-{dimethylamino}acetamido)methyl]phenoxy}acetate], the EC50 was found to be 83.4 nM.

Regarding `CCOC(=O)COc1cccc(CN(CCn2c(CCOC)nc3c(N)nc4ccccc4c32)C(=O)CN(CC)CC)c1` [Example 101, Ethyl 2-{3-[(N-{2-[4-amino-2-(2-methoxyethyl)-1H-imidazo[4,5-c]quinolin-1-yl]ethyl}-2-{diethylamino}acetamido)methyl]phenoxy}acetate], the EC50 was over 10000 nM.

On to `COCCc1nc2c(N)nc3ccccc3c2n1CCCN(Cc1cccc(OCC(=O)OC2CCCC2)c1)C(=O)CN(C)C` [Example 110, Cyclopentyl 2-{3-[(N-{3-[4-amino-2-(2-methoxyethyl)-1H-imidazo[4,5-c]quinolin-1-yl]propyl}-2-{dimethylamino}acetamido)methyl]phenoxy}acetate], for which the EC50 is 128 nM.

Take `COCCc1nc2c(N)nc3ccccc3c2n1CCCCN(Cc1ccc(F)c(OCC(=O)OC(C)C)c1)C(=O)NCCN1CCCCC1` [Example 139, Isopropyl 2-{5-[(1-{4-[4-amino-2-(2-methoxyethyl)-1H-imidazo[4,5-c]quinolin-1-yl]butyl}-3-{2-(piperidin-1-yl)ethyl}ureido)methyl]-2-fluorophenoxy}acetate]: the half-maximal effective concentration (EC50) was determined as 57 nM.

As to `COCCc1nc2c(N)nc3ccccc3c2n1CCCCNC(=O)N(CCN1CCCCC1)Cc1ccc(F)c(OCC(=O)OC)c1` [Example 144, Methyl 2-{5-[(3-{4-[4-amino-2-(2-methoxyethyl)-1H-imidazo[4,5-c]quinolin-1-yl]butyl}-1-{2-(piperidin-1-yl)ethyl}ureido)methyl]-2-fluorophenoxy}acetate], the concentration giving a half-maximal response (EC50) is 79.2 nM.

On to `CCCCc1nc2c(N)nc3ccccc3c2n1CCCN(Cc1cccc(OCC(=O)OC)c1)C(=O)CN1CCCC1` [Example 13, Methyl (3-{[[3-(4-amino-2-butyl-1H-imidazo[4,5-c]quinolin-1-yl)propyl](pyrrolidin-1-ylacetyl)amino]methyl}phenoxy)acetate], for which the EC50 is 136 nM.

`COCCc1nc2c(N)nc3ccccc3c2n1CCCCNC(=O)N(CCN1CCCCC1)Cc1ccc(F)c(OCC(=O)OC(C)C)c1` [Example 142, Isopropyl 2-{5-[(3-{4-[4-amino-2-(2-methoxyethyl)-1H-imidazo[4,5-c]quinolin-1-yl]butyl}-1-{2-(piperidin-1-yl)ethyl}ureido)methyl]-2-fluorophenoxy}acetate]: the EC50 was found to be 57.5 nM.

`CCOC(=O)COc1cccc(CN(CCCn2c(CCOC)nc3c(N)nc4ccccc4c32)C(=O)CN(C)C)c1F` [Example 95, Ethyl 2-{3-[(N-{3-[4-amino-2-(2-methoxyethyl)-1H-imidazo[4,5-c]quinolin-1-yl]propyl}-2-{dimethylamino}acetamido)methyl]-2-fluorophenoxy}acetate]: the EC50 came to 447 nM.

In the case of `CCCCc1nc2c(N)nc3ccccc3c2n1CCCN(Cc1cccc(OCC(=O)OC(C)C)c1F)C(=O)CN(CC)CC` [Example 164, Isopropyl 2-[3-({N-[3-(4-amino-2-butyl-1H-imidazo[4,5-c]quinolin-1-yl)propyl]-2-(diethylamino)acetamido}methyl)-2-fluorophenoxy]acetate], the concentration for a half-maximal effect (EC50) worked out at 158 nM.

Source of the values: patent publication US20110136801A1, “Novel Compounds” (Dainippon Sumitomo Pharma Co. Ltd., priority 2009, published 2011).
